This is an account of results in US10966911B2, “Melanin decomposition inhibitor” (KAO CORPORATION, priority 2016, dated 2021).

Data set [1] has as its system human skin tissue. Nature of the data set: Effect of proguanil on skin color of cultured human skin tissue. The format is cell-based. To be noted: proguanil 150, 180, 210, 240, 270 or 300 μM; Day 5; versus DMSO; FIG. 12. How it is done:
A normal human skin tissue, which was obtained at the time of surgical operation, was provided by a medical college (department of plastic surgery). The human skin tissue, from which subcutaneous fat was previously trimmed, was cut into small pieces having a size of about 1 cm×1 cm by knife. The small pieces were cultured by using a 6-well plate at 37° C. under a 5 vol % CO2 atmospheric conditions. In the culture, Advanced DMEM medium containing a 10% (v/v) Fetal Bovine Serum (FBS) (Thermo Fisher Scientific, respectively) was used. A human skin tissue was allowed to stand still in a 6-well plate. Proguanil was added in the medium at a final concentration of 150, 180, 210, 240, 270 or 300 μM and then tissue culture was performed. As a control, DMSO was added in the same amount. Medium replacement was carried out every 2 to 3 days. Day 5 after initiation of the culture, the appearance of the skin tissue was observed and photographed.

Data set [2] concerns human skin tissue. In words: Fontana-Masson staining of skin tissue cultured with proguanil. The format is cell-based. To be noted: proguanil 180 μM; 5 days; versus DMSO control; FIG. 13 upper stage. How it is done: (§1) The human skin tissue, from which subcutaneous fat was previously trimmed, was cut into small pieces having a size of about 1 cm×1 cm by knife. The small pieces were cultured by using a 6-well plate at 37° C. under a 5 vol % CO2 atmospheric conditions. In the culture, Advanced DMEM medium containing a 10% (v/v) Fetal Bovine Serum (FBS) (Thermo Fisher Scientific, respectively) was used. […] More specifically, the skin tissue was embedded in paraffin and the resultant paraffine block was sliced to prepare paraffin sections of 5 μm in thickness. A Fontana ammonia silver solution (manufactured by MUTO PURE CHEMICALS Co., Ltd.) was allowed to react at room temperature for two hours to visually distinguish melanin granules. Thereafter, nuclear staining was performed using Kernechtrot solution (manufactured by MUTO PURE CHEMICALS Co., Ltd.). […] At the same time, HE staining was carried out.

In data set [3] the test system is human skin tissue. In words: HE staining of skin tissue cultured with proguanil (tissue damage). The data set is classed as cell-based. The settings on record: proguanil 180 μM; 5 days; FIG. 13 lower stage. How it is done:
as §1

Data set [4] relates to dopa oxidase activity of melanocytes. Nature of the data set: Dopa oxidase activity of melanocytes in melanocyte single culture system. The format is cell-based, human. To be noted: melanocytes (lightly and darkly); proguanil 0.1-1000 μM; 4 days; versus DMSO; FIGS. 14A, 14B. The procedure:
Normal human neonatal foreskin-derived epidermal melanocytes (Human Epidermal Melanocytes, neonatal, lightly pigmented donor (HEMn-LP) and Human Epidermal Melanocytes, neonatal, darkly pigmented donor (HEMn-DP); melanocytes (lightly) and melanocytes (darkly)), a growth medium for epidermal melanocytes (Medium254) and a growth additive (HMGS) for the medium were purchased from Thermo Fisher Scientific. Melanocytes were cultured at 37° C. in 5 vol % CO2 atmospheric conditions.
Melanocytes (lightly and darkly) were seeded in 96-well plates at a cell density of 2×10^4 cells/well (100 μL/well). […] Thereafter, fluorescence intensity of the medium was measured (Ex544 nm/Em590 nm) to evaluate cellular respiratory chain (growth) activity. […] The cells were lysed at 4° C. over 2 hours and dopa oxidase activity was measured. The activity measurement was performed by the following method based on the […] method (Winder A. et al., 1991, Eur. J. Biochem. 198: 317-326): to individual wells containing a cell lysate, the Assay Buffer (80 μL) as mentioned above, an aqueous 20.7 mM MBTH (3-methyl-2-benzothiazolinone hydrazone) solution (60 μL) and an aqueous 5 mM L-DOPA (L-dihydroxyphenylalanine) (40 μL) solution serving as a substrate were added, a reaction was performed at 37° C. for 30 minutes and the absorbance at a wavelength of 505 nm was measured.

Data set [5] relates to melanocytes (HEMn-LP, HEMn-DP). In words: Cellular respiratory chain (growth) activity, alamarBlue, melanocyte single culture system. The settings on record: melanocytes (lightly and darkly); concentration range of 30 μM or less; 4 days; FIGS. 14C, 14D. The data set is classed as cell-based, human. For orientation: Alamar Blue is a resazurin reagent that responds to reducing activity.
Method: Melanocytes (lightly and darkly) were seeded in 96-well plates at a cell density of 2×10^4 cells/well (100 μL/well). […] As a control, the same amount of DMSO was added. After completion of culture, the whole medium was replaced (100 μL/well), a reagent, alamarBlue (Bio-Rad AbD Serotec Limited) was added so as to obtain a ratio of 10 μL/well. Incubation was carried out at 37° C. in 5 vol % CO2 atmospheric conditions for one hour. Thereafter, fluorescence intensity of the medium was measured (Ex544 nm/Em590 nm) to evaluate cellular respiratory chain (growth) activity.

In a further data set the test system is LC3-II. In words: Autophagy activity of epidermal keratinocytes (LC3-II accumulation with chloroquine diphosphate, Western blotting). The data set is classed as cell-based, human. To be noted: proguanil 0.3, 1, 3, 10 or 30 μM in presence of 10 μM chloroquine diphosphate, FIG. 18. In general terms: Immunoblotting shows a protein as a band on a membrane.

Method for LC3-II: Normal human neonatal foreskin-derived epidermal keratinocytes (Human Epidermal Keratinocytes, neonatal (HEKn) lightly; keratinocytes) were purchased from Thermo Fisher Scientific. […] The keratinocytes were cultured in a grow medium (Epilife) epidermal keratinocytes (Thermo Fisher Scientific) supplemented with a growth additive (Humedia-KG) (manufactured by Kurabo Industries Ltd.) at 37° C. in 5 vol % CO2 atmospheric conditions.
Keratinocytes were seeded in a 6-well plate at a density of 1.5×10^5 cells/well (2 mL/well). The following day, proguanil was added so as to obtain a final concentration of 0.3, 1, 3, 10 or 30 μM. Culture was performed at 37° C. in 5 vol % CO2 atmospheric conditions. As a control, the same amount of DMSO was added. […] The following day, Chloroquine diphosphate attached to LC3B Antibody Kit for Autophagy (Thermo Fisher Scientific) was added so as to obtain a final concentration of 10 μM. Culture was performed at 37° C. in 5 vol % CO2 atmospheric conditions for 24 hours. After completion of the culture, SDS-PAGE and western blotting were performed in accordance with the method as mentioned above. As a primary antibody, anti-LC3B (1:1000) attached to the kit mentioned above was used. […] Expression of β-actin as the internal standard was evaluated by using monoclonal antibody specific for β-actin (Sigma-Aldrich, 1:5000).

Take `[H]/N=C(\N/C(=N/[H])Nc1ccc(Cl)cc1)NC(C)C` [proguanil, 1-(p-chlorophenyl)-5-isopropyl biguanide]: the “darkening of the skin color” value with human skin tissue [1] is reported as “induces darkening of the skin color in a dose-dependent manner”. Besides, in the data set on human skin tissue [2], the “deposition of melanin in the epidermis” value is listed as “melanin is accumulated in a wider range of the epidermis”. Moreover, the “tissue damage (HE staining)” value in the data set with human skin tissue [3] is given as “no damage was induced in the tissue”. The dopa oxidase activity result in data set [4] was “did not accelerate dopa oxidase activity”. Also, the “cell toxicity (cellular respiratory chain activity)” value in data set [5] is listed as “cell toxicity was not observed”. Moreover, the “accumulation of LC3-II” value in the data set with LC3-II is “the accumulation was reduced by proguanil in a concentration-dependent manner”.
